Several values for one entry are separate records, joined by “and”; a condition that tells them apart may be missing. Equal entries are not always repeated.
Experiments:
[1] = system: male rats of Wistar strain; assay: Animal trial: serum total cholesterol, HDL and LDL in rats on cholesterol diet; type: in vivo, rat; conditions: for total cholesterol reduction (lowering) in comparison to the starting condition: 2 weeks; for HDL, Average / LDL, Average / Total cholesterol, Average: group average; for HDL / LDL / Total cholesterol: individual rat
Procedure: (§1) During the adaptation period, health was monitored by weighing and observing the animals. […] After 10 days of cholesterol-containing feed, all animals were in a state of hypercholesterolemia. One group served as the control, whereas group II, III, and IV received 0.5%, 1%, and 2% of KHCA (produced via the method of Example 2), respectively, in addition to the cholesterol diet. The salt solutions were given orally in 2 ml water daily. Group I received 2 ml of distilled water per 200 g body weight; group II received 1.03 mg KHCA in 2 ml water per 200 body weight; group III 2.06 mg; and group IV 4.12 mg. These treatments were continued for 2 weeks.
The animals were fasted for 12 hours prior to blood withdrawal. Rats were weighed and the 3-4 ml blood was obtained by amputating 2-3 cm of the tail. The blood was collected, let stand at room temperature for 30 minutes, and then centrifuged for 10-15 minutes. The serum was separated and refrigerated at 4° C. until ready for cholesterol analysis. Cholesterol level of the serum was analyzed using diagnostic kit (Boehringer Mannheim). Total cholesterol, LDL, and HDL were determined through spectrophotometric instrument (Hitachi). These are protocols frequently used in clinical laboratories.
Student's T-test was used to evaluate whether there was a difference between the control and each of the treated groups by comparing the data before and after the treatment. One-way variance analysis was performed to see if there was a statistically significant difference among the groups.

[2] = Animal trial: body weight, feed and water consumption, feces; type: in vivo, rat; conditions: for Body weight: group average
Procedure: as §1

rats = conditions: physiologic doses; cited from earlier work
[3] = animal model, U.S. Pat. No. 6,221,901; cited from earlier work
[4] = 0.5% KHCA (1.03 mg/day oral, 2 weeks), End Day 24
[5] = 0.5% KHCA group, Hypercholesterolemia Day 10 (before treatment)
[6] = 0.5% KHCA group, Start (before diet and treatment)
[7] = 1.0% KHCA (2.06 mg/day oral, 2 weeks), End Day 24
[8] = 1.0% KHCA group, Hypercholesterolemia Day 10 (before treatment)
[9] = 1.0% KHCA group, Start (before diet and treatment)
[10] = 2.0% KHCA (4.12 mg/day oral, 2 weeks), End Day 24
[11] = 2.0% KHCA group, Hypercholesterolemia Day 10 (before treatment)
[12] = 2.0% KHCA group, Start (before diet and treatment)
[13] = 2 ml of 2 percent daily for two weeks
[14] = 2 ml of 2 percent daily, value before the two weeks treatment
[15] = KHCA 0.5% group, Hyper-cholesterolemia (Day 10), before treatment
[16] = KHCA 0.5% group, Start (before diet and treatment)
[17] = KHCA 0.5%, 2 weeks oral, End (Day 24)
[18] = KHCA 1.0% group, Hyper-cholesterolemia (Day 10), before treatment
[19] = KHCA 1.0% group, Start (before diet and treatment)
[20] = KHCA 1.0%, 2 weeks oral, End (Day 24)
[21] = KHCA 2.0% group, Hyper-cholesterolemia (Day 10), before treatment
[22] = KHCA 2.0% group, Start (before diet and treatment)
[23] = KHCA 2.0%, 2 weeks oral, End (Day 24)
[24] = KHCA administration versus control group

For `O=C([O-])CC(O)(C(=O)[O-])C(O)C(=O)[O-].[K+].[K+].[K+]` (centres unmarked) [KHCA, Potassium HCA Salt], the “total cholesterol reduction (lowering) in comparison to the starting condition” value (“total cholesterol reduction (lowering)” below) ([1]; 0.5% K-HCA) was 1.6 mg·dL, the “HDL, Average” value [1, 4] was 49.2 mg/dL and the “LDL, Average” value [1, 4] was 64.6 mg/dL. For the same molecule, the “Total cholesterol, Average” value [1, 4] was 79.2 mg/dL, the HDL [1, 4] was 40 mg/dL and 59 mg/dL and 43 mg/dL and 53 mg/dL and 51 mg/dL and the LDL [1, 4] was 59 mg/dL and 77 mg/dL and 71 mg/dL and 60 mg/dL and 56 mg/dL. The Total cholesterol [1, 4] was 82 mg/dL and 80 mg/dL and 76 mg/dL and 79 mg/dL (2×), the “HDL, Average” value [1, 5] was 31 mg/dL and the “LDL, Average” value [1, 5] was 63.2 mg/dL. For the same molecule, the “Total cholesterol, Average” value [1, 5] was 81 mg/dL, the HDL [1, 5] was 27 mg/dL and 28 mg/dL and 39 mg/dL and 31 mg/dL and 30 mg/dL and the LDL [1, 5] was 60 mg/dL (2×) and 70 mg/dL and 67 mg/dL and 59 mg/dL. For the same molecule, the Total cholesterol [1, 5] was 83 mg/dL and 84 mg/dL and 76 mg/dL and 80 mg/dL and 82 mg/dL, the “HDL, Average” value [1, 6] was 39 mg/dL and the “LDL, Average” value [1, 6] was 28.8 mg/dL. For the same molecule, the “Total cholesterol, Average” value [1, 6] was 72.6 mg/dL, the HDL [1, 6] was 37 mg/dL and 40 mg/dL and 41 mg/dL and 39 mg/dL and 38 mg/dL and the LDL [1, 6] was 31 mg/dL and 28 mg/dL and 33 mg/dL and 27 mg/dL and 25 mg/dL. The Total cholesterol [1, 6] was 74 mg/dL and 73 mg/dL and 69 mg/dL and 72 mg/dL and 75 mg/dL, the “HDL, Average” value [1, 7] was 53 mg/dL and the “LDL, Average” value [1, 7] was 58.2 mg/dL. The “Total cholesterol, Average” value [1, 7] was 71 mg/dL, the HDL [1, 7] was 58 mg/dL and 60 mg/dL and 49 mg/dL and 46 mg/dL and 52 mg/dL and the LDL [1, 7] was 69 mg/dL and 51 mg/dL and 48 mg/dL and 60 mg/dL and 63 mg/dL. For the same molecule, the Total cholesterol [1, 7] was 73 mg/dL and 71 mg/dL and 75 mg/dL and 69 mg/dL and 67 mg/dL, the “HDL, Average” value [1, 8] was 31.8 mg/dL and the “LDL, Average” value [1, 8] was 60.4 mg/dL. For the same molecule, the “Total cholesterol, Average” value [1, 8] was 79.6 mg/dL, the HDL [1, 8] was 28 mg/dL and 37 mg/dL (2×) and 30 mg/dL and 27 mg/dL and the LDL [1, 8] was 67 mg/dL and 59 mg/dL and 54 mg/dL and 60 mg/dL and 62 mg/dL. The Total cholesterol [1, 8] was 75 mg/dL and 82 mg/dL and 84 mg/dL and 80 mg/dL and 77 mg/dL, the “HDL, Average” value [1, 9] was 39 mg/dL and the “LDL, Average” value [1, 9] was 29 mg/dL. For the same molecule, the “Total cholesterol, Average” value [1, 9] was 72.6 mg/dL, the HDL [1, 9] was 36 mg/dL and 40 mg/dL and 43 mg/dL and 39 mg/dL and 37 mg/dL and the LDL [1, 9] was 28 mg/dL and 29 mg/dL and 33 mg/dL and 30 mg/dL and 25 mg/dL. The Total cholesterol [1, 9] was 69 mg/dL and 74 mg/dL and 72 mg/dL and 75 mg/dL and 73 mg/dL, the “total cholesterol reduction (lowering)” value ([1]; 1.0% KHCA) was 2.06 mg·dL and the “change of HDL concentration in blood serum” value ([1]; 2.0% (4.12 mg) KHCA daily, control group decreased) was “increased”. The “total cholesterol reduction (lowering)” value ([1]; 2.0% KHCA (4.12 mg daily)) was 12.2 mg·dL, the “HDL, Average” value [1, 10] was 63.4 mg/dL and the “LDL, Average” value [1, 10] was 50 mg/dL. For the same molecule, the “Total cholesterol, Average” value [1, 10] was 61.2 mg/dL, the HDL [1, 10] was 64 mg/dL and 61 mg/dL and 67 mg/dL and 59 mg/dL and 66 mg/dL and the LDL [1, 10] was 61 mg/dL and 46 mg/dL and 50 mg/dL and 44 mg/dL and 49 mg/dL. The Total cholesterol [1, 10] was 59 mg/dL and 66 mg/dL and 52 mg/dL and 58 mg/dL and 71 mg/dL, the “HDL, Average” value [1, 11] was 34.6 mg/dL and the “LDL, Average” value [1, 11] was 63.2 mg/dL. The “Total cholesterol, Average” value [1, 11] was 82 mg/dL, the HDL [1, 11] was 31 mg/dL and 37 mg/dL and 40 mg/dL and 33 mg/dL and 32 mg/dL and the LDL [1, 11] was 69 mg/dL and 61 mg/dL and 59 mg/dL and 60 mg/dL and 67 mg/dL. For the same molecule, the Total cholesterol [1, 11] was 83 mg/dL and 85 mg/dL and 81 mg/dL and 79 mg/dL and 82 mg/dL, the “HDL, Average” value [1, 12] was 38.8 mg/dL and the “LDL, Average” value [1, 12] was 29.8 mg/dL. The “Total cholesterol, Average” value [1, 12] was 73.4 mg/dL, the HDL [1, 12] was 38 mg/dL and 40 mg/dL and 41 mg/dL and 36 mg/dL and 39 mg/dL and the LDL [1, 12] was 31 mg/dL and 29 mg/dL and 26 mg/dL and 33 mg/dL and 30 mg/dL. The Total cholesterol [1, 12] was 75 mg/dL and 70 mg/dL and 72 mg/dL and 73 mg/dL and 77 mg/dL, the “HDL level, after treatment” value [1, 13] was 63 mg/dL and the “serum cholesterol LDL level, after treatment” value [1, 13] was 50 mg·dL. For the same molecule, the “HDL level, before treatment” value [1, 14] was 35 mg/dL, the “serum cholesterol LDL level, before treatment” value [1, 14] was 63 mg/dL and the “LDL/HDL Ratio” value [1, 15] was 2.04. The “Total Cholesterol/HDL” value [1, 15] was 2.61, the “LDL/HDL Ratio” value [1, 16] was 0.74 and the “Total Cholesterol/HDL” value [1, 16] was 1.86. The “LDL/HDL Ratio” value [1, 17] was 1.31, the “Total Cholesterol/HDL” value [1, 17] was 1.61 and the “LDL/HDL Ratio” value [1, 18] was 1.9. For the same molecule, the “Total Cholesterol/HDL” value [1, 18] was 2.50, the “LDL/HDL Ratio” value [1, 19] was 0.74 and the “Total Cholesterol/HDL” value [1, 19] was 1.86. The “LDL/HDL Ratio” value [1, 20] was 1.1, the “Total Cholesterol/HDL” value [1, 20] was 1.34 and the “LDL/HDL Ratio” value [1, 21] was 1.83. For the same molecule, the “Total Cholesterol/HDL” value [1, 21] was 2.36, the “LDL/HDL Ratio” value [1, 22] was 0.77 and the “Total Cholesterol/HDL” value [1, 22] was 1.89. For the same molecule, the “LDL/HDL Ratio” value [1, 23] was 0.79, the “Total Cholesterol/HDL” value [1, 23] was 0.97 and the Body weight ([2]; 0.5% KHCA (1.03 mg/day oral), At Hypercholesterolemia, before treatment) was 202.4 grams. For the same molecule, the Body weight ([2]; 0.5% KHCA (1.03 mg/day oral), End of Experiment, after 2 weeks treatment) was 199.5 grams, the Body weight ([2]; 0.5% KHCA (1.03 mg/day oral), Start of Experiment, before cholesterol diet and treatment) was 162.8 grams and the Body weight ([2]; 1.0% KHCA (2.06 mg/day oral), At Hypercholesterolemia, before treatment) was 195.0 grams. It also gave a Body weight ([2]; 1.0% KHCA (2.06 mg/day oral), End of Experiment, after 2 weeks treatment) of 193.2 grams, a Body weight ([2]; 1.0% KHCA (2.06 mg/day oral), Start of Experiment, before cholesterol diet and treatment) of 157.7 grams and a Body weight ([2]; 2.0% KHCA (4.12 mg/day oral), At Hypercholesterolemia, before treatment) of 192.7 grams. For the same molecule, the Body weight ([2]; 2.0% KHCA (4.12 mg/day oral), End of Experiment, after 2 weeks treatment) was 183.7 grams, the Body weight ([2]; 2.0% KHCA (4.12 mg/day oral), Start of Experiment, before cholesterol diet and treatment) was 166.9 grams and the “effect on body weight” value [2, 13] was “reduced body weight”. For the same molecule, the feces consistency [2, 24] was “softer”, the feed consumption [2, 24] was “lower feed consumption” and the “benefits with regard to insulin metabolism and blood pressure regulation” value (rats) was “significant results”.
For `O=C([O-])CC(O)(C(=O)[O-])C(O)C(=O)[O-].[K+].[Mg+2]` (centres unmarked) [potassium-magnesium HCA, Potassium-Magnesium Hydroxycitrate Salt], the “benefits with regard to insulin metabolism and blood pressure regulation” value (rats) is given as “significant results”.
In the case of Magnesium HCA, the “increase in HDL” value [3] is listed as 8.5%.

Reference: patent US20080293815A1, “HCA FOR IMPROVED HDL SERUM LIPIDS PROFILE” (Glykon Technologies Group, LLC, priority 2006, published 2008)
